In patent US5331006A, “Amino acid analogs as CCK antagonists” (Warner-Lambert Company, priority 1991, dated 1994) one finds Ki data, which are given here for eight compounds.

SMILES strings stand for the structures. pKi: −log10 of the molar value.

A word on the pKi: it is the Ki on a negative log10 scale, so that one unit is a factor of ten.

The first assay deals with T1, CCK receptor sites (Mus musculus, UniProt P56481).
T1 construct: from tissue; host or cells: cerebral cortex membranes of male CFLP mice
T1 sequence (P56481 1-453): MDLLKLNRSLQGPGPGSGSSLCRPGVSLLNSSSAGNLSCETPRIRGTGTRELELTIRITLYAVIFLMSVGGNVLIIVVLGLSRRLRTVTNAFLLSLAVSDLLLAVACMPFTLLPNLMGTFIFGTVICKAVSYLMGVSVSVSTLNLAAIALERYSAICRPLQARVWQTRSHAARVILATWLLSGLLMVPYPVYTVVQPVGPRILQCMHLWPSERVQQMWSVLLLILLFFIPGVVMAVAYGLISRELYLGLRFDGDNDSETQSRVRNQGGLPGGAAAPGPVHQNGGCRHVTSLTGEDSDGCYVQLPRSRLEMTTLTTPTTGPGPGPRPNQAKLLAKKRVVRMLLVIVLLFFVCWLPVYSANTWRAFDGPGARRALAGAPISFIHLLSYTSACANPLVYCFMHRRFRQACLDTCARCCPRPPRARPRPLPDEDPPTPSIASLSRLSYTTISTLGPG
The assay is described as follows: CCK receptor binding, displacement of tritiated pentagastrin from mouse cerebral cortex membranes. To be noted: 2 nM tritiated pentagastrin, mouse cerebral cortical membranes; Ki from IC50 by Cheng-Prusoff. Also on record: key: IA = Inactive in respect to this binding assay. As to the method:
The biological activity of compounds of the present invention was evaluated employing an initial screening test which rapidly and accurately measured the binding of the tested compound to known CCK receptor sites. […] (See Hays, et al, Neuropeptides 1:53-62, 1980; and Satuer, et al, Science 208:1155-1156, 1980.)
In this screening test the cerebral cortices taken from male CFLP mice weighing between 30 to 40 g were dissected on ice, weighed, and homogenized in 10 volumes of 50 mM Tris-HCl buffer (pH 7.4 at 0° to 4° C.). The resulting suspension was centrifuged, the supernate was discarded, and the pellet was washed by resuspension in Tris-HCl buffer followed by recentrifugation. The final pellet was resuspended in 20 volumes of […] Hepes buffer (pH 7.2 at 23° C.) containing 130 mM NaCl, […] KCl, […] MgCl2, […] EDTA, 5 mg/mL bovine albumin, and bacitracin (0.25 mg/mL).
In saturation studies, cerebral cortical membranes were incubated at 23° C. for 120 minutes in a final volume of 500 μL of Hepes incubation buffer (pH 7.2) together with 0.2-20 nM tritiated-pentagastrin (Amersham International, England).
In the displacement experiments, membranes were incubated with a single concentration (2 nM) of ligand, together with increasing concentrations of competitive test compound. In each case, the nonspecific binding was defined as that persisting in the presence of the unlabeled octapeptide CCK26-33 (10^-6 M).
Following incubation, radioactivity bound to membranes was separated from that free in solution by rapid filtration through Whatman GF/B filters and washed three times with 4 mL of ice cold Tris-HCl buffer. Filters from samples incubated with tritiated pentagastrin were placed in polyethylene vials with 4 mL of scintillation cocktail, and the radioactivity was estimated by liquid scintillation spectrometry (efficiency 47% to 52%).
The specific binding to CCK receptor sites was defined as the total bound tritiated pentagastrin minus the amount of tritiated pentagastrin bound in the presence of 10^-6 octapeptide, CCK26-33.
Saturation curves for specific tritiated pentagastrin binding to mouse cortical membranes were analyzed by the methods of Scatchard (Ann. New York Acad. Sci. 51:660-672, 1949; Hill, J. Physiol. 40:IV-VIII, 1910) to provide estimates for the maximum number of binding sites (βmax)and the equilibrium dissociation constant (Ka).
In displacement experiments, inhibition curves were analyzed by either logit-log plots or the iterative curve fitting computer program ALLFIT (DeLean, Munson, and Redbard, 1978) to provide estimates of the IC50 and nH (apparent Hill coefficient) values). IC50 values were defined as the concentration of test compound required to produce 50% inhibition of specific binding).
The inhibition constant (Ki) of the test compound was then calculated according to the Cheng-Prusoff equation: [formula] where [L] is the concentration of radiolabel and Ka is the equilibrium dissociation constant.
The Ki values for several representative compounds of the present invention are present in Table II.
For the compound `CC(Cc1n[nH]c2ccccc12)(NC(=O)OC1C2CC3CC(C2)CC1C3)C(=O)NCC(c1ccccc1)N1C(=O)CCC1=O` (centres unmarked) [drawing 53/drawing 54 (Diast I)], the Ki result is given as “IA”. With `CC(Cc1ccc[n+]([O-])c1)(NC(=O)OC1C2CC3CC(C2)CC1C3)C(=O)NCCc1ccccc1` (centres unmarked), the Ki entry is listed as “IA”.

Turning to `Cc1[nH]cc(CC(C)(NC(=O)OC2C3CC4CC(C3)CC2C4)C(=O)NCCc2ccccc2)c1C` (centres unmarked) [drawing 56 (H H H H H)], the Ki result is “IA”.

Still in this assay, the particulars now being: 2 nM tritiated pentagastrin, mouse cerebral cortical membranes; Ki from IC50 by Cheng-Prusoff; read-out: Ki.
For `CN1c2ccccc2C(c2ccccc2)=NCC1CC(C)(NC(=O)OC1C2CC3CC(C2)CC1C3)C(=O)NCC(NC(=O)CCC(=O)O)c1ccccc1` (centres unmarked), the pKi is 6.54. The same measure, in the same setting: with `CC(Cc1n[nH]c2ccccc12)(NC(=O)OC1C2CC3CC(C2)CC1C3)C(=O)NCC(NC(=O)CCC(=O)O)c1ccccc1` (centres unmarked) [drawing 53 (H H H H NHCOCH2 CH2 COOH)] the figure was 7.02. Take `CC(Cc1c[nH]c2ncccc12)(NC(=O)OC1C2CC3CC(C2)CC1C3)C(=O)NC(CO)C(O)c1ccccc1` (centres unmarked) [drawing 66 (Diast I)]: the negative-log Ki (pKi) was 6.24. For the compound `CC(Cc1ccncc1)(NC(=O)OC1C2CC3CC(C2)CC1C3)C(=O)NCC(NC(=O)CCC(=O)O)c1ccccc1` (centres unmarked), the pKi is 6.66.

With `CC(Cc1c[nH]c2ncccc12)(NC(=O)OC1C2CC3CC(C2)CC1C3)C(=O)NC(CO)C(O)c1ccccc1` (centres unmarked) [drawing 66 (Diast II)], the negative-log Ki (pKi) is 7.37.
